Calls of active or inactive are those of the source. The calls are words filed in the database; no cut-off is given here.
How the values were obtained:
[1] = biological target: Transient receptor potential cation channel subfamily V member 1 (Rattus norvegicus) (UniProt O35433); experiment: Activation of TRPV1 in rat blood vessels; type: tissue-based; conditions: Blood vessel
[2] = biological target: T1, Transient receptor potential cation channel subfamily V member 1 (Homo sapiens, UniProt Q8NER1); experiment: Activation of TRPV1 in HEK293 cells; type: cell-based
T1 sequence (Q8NER1 whole entry): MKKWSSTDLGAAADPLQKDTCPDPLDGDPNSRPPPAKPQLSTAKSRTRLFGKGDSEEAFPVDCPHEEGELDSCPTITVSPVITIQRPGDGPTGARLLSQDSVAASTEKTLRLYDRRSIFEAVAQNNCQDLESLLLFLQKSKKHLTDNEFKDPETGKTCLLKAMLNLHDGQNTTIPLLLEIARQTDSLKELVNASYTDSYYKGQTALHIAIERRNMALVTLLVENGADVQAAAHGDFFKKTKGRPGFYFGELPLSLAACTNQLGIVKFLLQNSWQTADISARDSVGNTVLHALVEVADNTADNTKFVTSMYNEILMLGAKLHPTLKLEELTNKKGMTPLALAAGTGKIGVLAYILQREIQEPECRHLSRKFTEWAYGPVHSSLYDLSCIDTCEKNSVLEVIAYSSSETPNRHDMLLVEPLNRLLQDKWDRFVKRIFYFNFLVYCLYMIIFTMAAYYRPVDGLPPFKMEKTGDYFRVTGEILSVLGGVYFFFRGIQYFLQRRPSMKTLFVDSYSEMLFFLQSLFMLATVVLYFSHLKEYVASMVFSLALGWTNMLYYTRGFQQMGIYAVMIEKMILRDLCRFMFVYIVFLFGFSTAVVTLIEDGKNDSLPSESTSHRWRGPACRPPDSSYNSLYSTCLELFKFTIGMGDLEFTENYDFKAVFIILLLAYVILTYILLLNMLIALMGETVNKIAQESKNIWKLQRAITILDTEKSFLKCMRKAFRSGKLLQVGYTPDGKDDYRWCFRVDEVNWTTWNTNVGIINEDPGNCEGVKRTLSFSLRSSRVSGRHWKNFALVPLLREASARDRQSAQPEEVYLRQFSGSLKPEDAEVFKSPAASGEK

[3] = test system: Mus musculus; experiment: Antiobesity activity in Sabra mouse assessed as reduction in body weight at 1 mg/kg, ip administered on day 0, 10, 11, 12, 24, 29 measured on day 26 relative to control; type: functional; set-up: scale not given: the % may be the effect or the level left; conditions: route intraperitoneal
[4] = test system: Mus musculus; experiment: Antiobesity activity in Sabra mouse assessed as reduction in body weight at 1 mg/kg, ip administered on day 0, 10, 11, 12, 24, 29 measured on day 29 relative to control; type: functional; set-up: scale not given: the % may be the effect or the level left; conditions: route intraperitoneal
[5] = test system: Mus musculus; experiment: Antiobesity activity in Sabra mouse assessed as reduction in body weight at 1 mg/kg, ip administered on day 0, 10, 11, 12, 24, 29 measured on day 36 relative to control; type: functional; set-up: scale not given: the % may be the effect or the level left; conditions: route intraperitoneal
[6] = test system: Mus musculus; experiment: Antiobesity activity in Sabra mouse assessed as reduction in body weight at 1 mg/kg, ip administered on day 0, 10, 11, 12, 24, 29 measured on day 24 relative to control; type: functional; set-up: scale not given: the % may be the effect or the level left; conditions: route intraperitoneal
[7] = test system: Mus musculus; experiment: Antiobesity activity in Sabra mouse assessed as reduction in body weight at 1 mg/kg, ip administered on day 0, 10, 11, 12, 24, 29 measured on day 22 relative to control; type: functional; set-up: scale not given: the % may be the effect or the level left; conditions: route intraperitoneal
[8] = test system: Mus musculus; experiment: Antiobesity activity in Sabra mouse assessed as reduction in body weight at 1 mg/kg, ip administered on day 0, 10, 11, 12, 24, 29 measured on day 33 relative to control; type: functional; set-up: scale not given: the % may be the effect or the level left; conditions: route intraperitoneal
[9] = test system: Mus musculus; experiment: Antiobesity activity in Sabra mouse assessed as reduction in body weight at 1 mg/kg, ip administered on day 0, 10, 11, 12, 24, 29 measured on day 12 relative to control; type: functional; set-up: scale not given: the % may be the effect or the level left; conditions: route intraperitoneal
[10] = test system: Mus musculus; experiment: Antiobesity activity in Sabra mouse assessed as reduction in body weight at 1 mg/kg, ip administered on day 0, 10, 11, 12, 24, 29 measured on day 19 relative to control; type: functional; set-up: scale not given: the % may be the effect or the level left; conditions: route intraperitoneal
[11] = test system: Mus musculus; experiment: Antiobesity activity in Sabra mouse assessed as reduction in body weight at 1 mg/kg, ip administered on day 0, 10, 11, 12, 24, 29 measured on day 39 relative to control; type: functional; set-up: scale not given: the % may be the effect or the level left; conditions: route intraperitoneal
[12] = biological target: T1, Transient receptor potential cation channel subfamily V member 1; experiment: Agonist activity at TRPV1 receptor (unknown origin)
[13] = test system: Mus musculus; experiment: Antiobesity activity in Sabra mouse assessed as change in food consumption at 1 mg/kg, ip administered on day 8, 9, 10, 11, 14, 18, 24 and 32 measured after 2 weeks relative to control; type: functional; conditions: route intraperitoneal
[14] = biological target: Cannabinoid receptor 2 (Homo sapiens) (UniProt P34972); experiment: Displacement of [3H]WIN-55,212-2 from human recombinant CB2 receptor expressed in CHO-K1 cells at 10 uM relative to control; type: cell-based
Sequence of Cannabinoid receptor 2 (Homo sapiens) (P34972 whole entry): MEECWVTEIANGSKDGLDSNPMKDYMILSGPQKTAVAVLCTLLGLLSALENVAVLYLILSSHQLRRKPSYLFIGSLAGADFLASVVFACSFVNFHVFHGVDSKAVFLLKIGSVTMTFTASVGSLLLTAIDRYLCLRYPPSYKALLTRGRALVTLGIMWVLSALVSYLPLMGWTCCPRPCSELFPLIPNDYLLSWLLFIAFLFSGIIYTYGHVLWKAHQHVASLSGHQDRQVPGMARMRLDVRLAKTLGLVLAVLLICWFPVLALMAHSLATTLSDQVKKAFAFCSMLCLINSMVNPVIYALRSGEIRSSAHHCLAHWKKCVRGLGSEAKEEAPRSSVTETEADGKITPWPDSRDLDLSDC

[15] = test system: Mus musculus; experiment: Antiobesity activity in Sabra mouse assessed as change in food consumption at 1 mg/kg, ip administered on day 8, 9, 10, 11, 14, 18, 24 and 32 measured after 6 weeks relative to control; type: functional; conditions: route intraperitoneal
[16] = biological target: T2, Fatty-acid amide hydrolase 1 (Rattus norvegicus) (UniProt P97612); experiment: Inhibition of rat brain FAAH using [3H]anandamide as substrate at 10 uM preincubated for 15 mins before substrate addition relative to control
T2 sequence (whole entry): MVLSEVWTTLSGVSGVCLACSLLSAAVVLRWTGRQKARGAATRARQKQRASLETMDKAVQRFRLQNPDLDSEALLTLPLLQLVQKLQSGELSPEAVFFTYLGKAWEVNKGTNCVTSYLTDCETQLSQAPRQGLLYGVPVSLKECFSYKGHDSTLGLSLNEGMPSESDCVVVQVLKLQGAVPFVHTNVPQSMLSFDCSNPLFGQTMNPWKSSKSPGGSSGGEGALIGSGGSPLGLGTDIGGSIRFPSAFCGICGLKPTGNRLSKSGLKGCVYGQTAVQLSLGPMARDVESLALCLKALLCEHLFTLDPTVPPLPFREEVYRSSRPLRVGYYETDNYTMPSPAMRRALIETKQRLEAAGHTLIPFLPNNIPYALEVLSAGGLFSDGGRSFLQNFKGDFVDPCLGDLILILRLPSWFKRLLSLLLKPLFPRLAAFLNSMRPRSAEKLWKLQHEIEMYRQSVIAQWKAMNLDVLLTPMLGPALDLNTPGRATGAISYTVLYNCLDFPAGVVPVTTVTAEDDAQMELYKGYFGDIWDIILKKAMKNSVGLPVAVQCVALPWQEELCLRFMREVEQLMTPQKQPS

[17] = test system: Mus musculus; experiment: Antiobesity activity in Sabra mouse assessed as change in body weight at 1 mg/kg, ip administered on day 8, 9, 10, 11, 14, 18, 24 and 32 measured on day 25 relative to control; type: functional; conditions: route intraperitoneal
[18] = biological target: Cannabinoid receptor 1 (Homo sapiens) (UniProt P21554); experiment: Displacement of [3H]SR141716A from human CB1 receptor expressed in rat Chem-1 cell membrane at 10 uM relative to control; type: cell membranes
Sequence of Cannabinoid receptor 1 (Homo sapiens) (P21554 whole entry): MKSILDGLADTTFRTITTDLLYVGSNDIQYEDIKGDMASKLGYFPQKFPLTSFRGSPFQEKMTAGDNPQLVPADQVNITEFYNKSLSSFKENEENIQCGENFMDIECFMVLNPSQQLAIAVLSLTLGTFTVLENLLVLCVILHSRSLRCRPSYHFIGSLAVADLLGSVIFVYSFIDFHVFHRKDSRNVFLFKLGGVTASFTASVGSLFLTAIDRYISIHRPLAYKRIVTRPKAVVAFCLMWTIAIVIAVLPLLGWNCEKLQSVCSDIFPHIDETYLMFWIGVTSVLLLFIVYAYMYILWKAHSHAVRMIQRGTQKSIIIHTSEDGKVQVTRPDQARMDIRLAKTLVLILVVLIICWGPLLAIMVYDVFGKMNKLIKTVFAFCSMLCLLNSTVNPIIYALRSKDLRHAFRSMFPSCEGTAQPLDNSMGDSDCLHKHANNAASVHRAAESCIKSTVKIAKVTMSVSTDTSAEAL

[19] = test system: Hypothalamus; experiment: Effect on POMC gene expression in Sabra mouse hypothalamus assessed as change in mRNA level at 1 mg/kg, ip administered on day 8, 9, 10, 11, 14, 18, 24 and 32 by RT-PCR analysis relative to GAPDH; type: functional; conditions: route intraperitoneal
[20] = test system: Hypothalamus; experiment: Effect on FAAH gene expression in Sabra mouse hypothalamus assessed as change in mRNA level at 1 mg/kg, ip administered on day 8, 9, 10, 11, 14, 18, 24 and 32 by RT-PCR analysis relative to GAPDH; type: functional; conditions: route intraperitoneal
[21] = test system: Hypothalamus; experiment: Effect on CART gene expression in Sabra mouse hypothalamus assessed as change in mRNA level at 1 mg/kg, ip administered on day 8, 9, 10, 11, 14, 18, 24 and 32 by RT-PCR analysis relative to GAPDH; type: functional; conditions: route intraperitoneal
[22] = test system: Hypothalamus; experiment: Effect on CAMKK2 gene expression in Sabra mouse hypothalamus assessed as change in mRNA level at 1 mg/kg, ip administered on day 8, 9, 10, 11, 14, 18, 24 and 32 by RT-PCR analysis relative to GAPDH; type: functional; conditions: route intraperitoneal
[23] = test system: Mus musculus; experiment: Antiobesity activity in Sabra mouse assessed as change in body weight at 1 mg/kg, ip administered on day 8, 9, 10, 11, 14, 18, 24 and 32 measured on day 39 relative to control; type: functional; conditions: route intraperitoneal
[24] = test system: Hypothalamus; experiment: Effect on NPY gene expression in Sabra mouse hypothalamus assessed as change in mRNA level at 1 mg/kg, ip administered on day 8, 9, 10, 11, 14, 18, 24 and 32 by RT-PCR analysis relative to GAPDH; type: functional; conditions: route intraperitoneal
[25] = test system: Mus musculus; experiment: Antiobesity activity in Sabra mouse assessed as change in food consumption at 1 mg/kg, ip administered on day 8, 9, 10, 11, 14, 18, 24 and 32 measured after 5 weeks relative to control; type: functional; conditions: route intraperitoneal
[26] = biological target: Transient receptor potential cation channel subfamily V member 1 (Rattus norvegicus) (UniProt O35433); experiment: Displacement of [3H]resiniferatoxin from TRPV1 receptor in Wistar rat spinal cord at 10 uM relative to control
[27] = test system: Mus musculus; experiment: Antiobesity activity in Sabra mouse assessed as change in body weight at 1 mg/kg, ip administered on day 8, 9, 10, 11, 14, 18, 24 and 32 measured on day 35 relative to control; type: functional; conditions: route intraperitoneal
[28] = biological target: T3, Peroxisome proliferator-activated receptor alpha (Homo sapiens) (UniProt Q07869); experiment: Binding affinity to human recombinant PPARalpha expressed in Escherichia coli at 10 uM for 16 hrs by spectrofluorimetric analysis relative to control
T3 sequence (whole entry): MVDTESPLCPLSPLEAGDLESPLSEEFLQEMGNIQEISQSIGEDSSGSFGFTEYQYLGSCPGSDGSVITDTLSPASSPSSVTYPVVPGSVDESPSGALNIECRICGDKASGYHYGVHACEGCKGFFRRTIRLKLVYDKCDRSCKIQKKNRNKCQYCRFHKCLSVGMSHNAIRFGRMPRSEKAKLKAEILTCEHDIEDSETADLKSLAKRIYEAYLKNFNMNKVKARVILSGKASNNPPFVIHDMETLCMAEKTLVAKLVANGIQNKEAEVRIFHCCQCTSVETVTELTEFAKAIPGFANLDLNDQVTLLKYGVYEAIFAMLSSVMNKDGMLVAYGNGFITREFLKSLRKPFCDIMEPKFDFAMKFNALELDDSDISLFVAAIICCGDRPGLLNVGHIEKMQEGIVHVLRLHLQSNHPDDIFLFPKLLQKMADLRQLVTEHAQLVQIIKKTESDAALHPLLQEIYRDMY

[29] = test system: Mus musculus; experiment: Antiobesity activity in Sabra mouse assessed as change in body weight at 1 mg/kg, ip administered on day 8, 9, 10, 11, 14, 18, 24 and 32 measured on day 14 relative to control; type: functional; conditions: route intraperitoneal
[30] = test system: Mus musculus; experiment: Antiobesity activity in Sabra mouse assessed as change in body weight at 1 mg/kg, ip administered on day 8, 9, 10, 11, 14, 18, 24 and 32 measured on day 21 relative to control; type: functional; conditions: route intraperitoneal
[31] = test system: Mus musculus; experiment: Antiobesity activity in Sabra mouse assessed as change in food consumption at 1 mg/kg, ip administered on day 8, 9, 10, 11, 14, 18, 24 and 32 measured after 3 weeks relative to control; type: functional; conditions: route intraperitoneal
[32] = test system: Mus musculus; experiment: Increase in motor activity Sabra mouse at 1 mg/kg, ip administered on day 8, 9, 10, 11, 14, 18, 24 and 32 measured on day 14 by open field test; type: functional, organism-based; set-up: dose 1 mg/kg
[33] = test system: Hypothalamus; experiment: Effect on 5HT1A gene expression in Sabra mouse hypothalamus assessed as change in mRNA level at 1 mg/kg, ip administered on day 8, 9, 10, 11, 14, 18, 24 and 32 by RT-PCR analysis relative to GAPDH; type: functional; conditions: route intraperitoneal
[34] = test system: Mus musculus; experiment: Antiobesity activity in Sabra mouse assessed as change in body weight at 1 mg/kg, ip administered on day 8, 9, 10, 11, 14, 18, 24 and 32 measured on day 30 relative to control; type: functional; conditions: route intraperitoneal
[35] = test system: Mus musculus; experiment: Antiobesity activity in Sabra mouse assessed as change in body weight at 1 mg/kg, ip administered on day 8, 9, 10, 11, 14, 18, 24 and 32 measured on day 4 relative to control; type: functional; conditions: route intraperitoneal
[36] = test system: Mus musculus; experiment: Antiobesity activity in Sabra mouse assessed as change in body weight at 1 mg/kg, ip administered on day 8, 9, 10, 11, 14, 18, 24 and 32 measured on day 9 relative to control; type: functional; conditions: route intraperitoneal
[37] = test system: Mus musculus; experiment: Antiobesity activity in Sabra mouse assessed as change in food consumption at 1 mg/kg, ip administered on day 8, 9, 10, 11, 14, 18, 24 and 32 measured after 4 weeks relative to control; type: functional; conditions: route intraperitoneal

Sequence of Transient receptor potential cation channel subfamily V member 1 (Rattus norvegicus) (O35433 whole entry): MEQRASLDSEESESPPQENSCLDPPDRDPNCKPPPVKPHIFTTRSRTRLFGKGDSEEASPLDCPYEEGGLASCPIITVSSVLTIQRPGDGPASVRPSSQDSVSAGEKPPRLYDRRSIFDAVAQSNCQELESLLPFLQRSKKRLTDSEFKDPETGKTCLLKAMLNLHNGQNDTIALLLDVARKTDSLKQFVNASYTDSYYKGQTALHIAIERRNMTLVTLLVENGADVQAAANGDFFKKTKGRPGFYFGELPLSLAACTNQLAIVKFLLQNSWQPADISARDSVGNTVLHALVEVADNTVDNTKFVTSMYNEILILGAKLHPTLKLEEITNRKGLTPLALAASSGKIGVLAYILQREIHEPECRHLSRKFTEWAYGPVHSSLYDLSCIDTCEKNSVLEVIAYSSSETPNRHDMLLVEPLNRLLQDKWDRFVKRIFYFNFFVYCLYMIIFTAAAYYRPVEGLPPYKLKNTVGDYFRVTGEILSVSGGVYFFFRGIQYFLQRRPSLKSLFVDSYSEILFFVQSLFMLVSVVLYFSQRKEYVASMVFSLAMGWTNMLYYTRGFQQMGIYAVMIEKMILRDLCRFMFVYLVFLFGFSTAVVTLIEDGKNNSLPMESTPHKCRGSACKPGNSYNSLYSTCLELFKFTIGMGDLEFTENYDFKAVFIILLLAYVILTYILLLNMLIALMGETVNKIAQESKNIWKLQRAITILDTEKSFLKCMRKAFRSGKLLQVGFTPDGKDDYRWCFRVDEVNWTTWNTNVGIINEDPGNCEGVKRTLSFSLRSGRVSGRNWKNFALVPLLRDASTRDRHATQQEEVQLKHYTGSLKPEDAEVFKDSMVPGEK

Structure (SMILES): CCCCCCCCCCCCCCCC(=O)NCCO
- Activity [1]: inactive
- Activity [2]: inactive

Structure (SMILES): CCCCCCCC/C=C\CCCCCCCC(=O)N(C)CCO
- Activity [3]: -0.5%
- Activity [4]: -1.44%
- Activity [5]: -3.28%
- Activity [6]: 0.03%
- Activity [7]: -0.48%
- Activity [8]: -0.3%
- Activity [9]: -0.61%
- Activity [10]: -0.48%
- Activity [11]: -3.67%

Structure (SMILES): CCCCC/C=C\C/C=C\C/C=C\C/C=C\CCCC(=O)NCCO [ANANDAMIDE]
- EC50 [12]: 15.8 nM

Structure (SMILES): CCCCCCCC/C=C\CCCCCCCC(=O)N[C@@H](CO)C(C)C
- Activity [13]: 79.4%
- inhibition [14]: 5%
- Activity [15]: 77.3%
- inhibition [16]: 8%
- Activity [17]: -3.3%
- inhibition [18]: 36%
- Activity [19]: 31%
- Activity [20]: -28%
- Activity [21]: 44%
- Activity [22]: -2%
- Activity [23]: -6.7%
- Activity [24]: 8%
- Activity [25]: 80.6%
- inhibition [26]: 3%
- Activity [27]: -6%
- Activity [28]: 0%
- Activity [29]: -3.1%
- Activity [30]: -1.7%
- Activity [31]: 78.1%
- Activity [32]: Active
- Activity [33]: 17%
- Activity [34]: -4.7%
- Activity [35]: 0.4%
- Activity [36]: -0.8%
- Activity [37]: 81.8%
